# Measured values reported in article PMC9532951, “Identification and characterization of a novel SNAT2 (SLC38A2) inhibitor reveals synergy with glucose transport inhibition in cancer cells” (Frontiers in Pharmacology, 2022).
# “And” between values parts separate entries of the source, which are not always exact repeats. Equal values may be shown once.
# Experiments:
# [1] = system: SNAT1 and SNAT2; experiment: High-throughput compound screen, FMP assay in 384-well format (primary, confirmatory, control compounds); format: cell-based, human
# Method: For the high-throughput compound screen, the FMP assay was adapted into a 384-well format within the ANU Centre for Therapeutic Discovery. […] Compounds Australia stores compounds under robust environmental conditions and supplies them in assay ready plate format. We screened 33,934 compounds from the Collection Scaffold Library. Cells (10,000/well) were seeded into Corning 384-well black walled plates (CLS3985; Sigma-Aldrich) using a Multidrop Combi liquid dispensing robot (Thermo Fisher) in a 40 µl volume. Once seeded, cells were allowed to grow in a microplate incubator (Liconic) for 24 h at 37°C (humidified atmosphere with 95% air and 5% CO2). Subsequently, plates were washed thrice with 50 µL of mHBSS using a 405 TS washer (BioTek). Then, 50 µl of starvation medium was added and cells were incubated again for 24 h.
# Assay-ready compound plates (384 well plates containing compound or DMSO controls) were then prepared prior to addition to cells. In addition to the supplied compounds, 5 µl γ-glutamyl-hydroxamate (GHX, 60 mM dissolved in mHBSS, serving as an inhibitor control) was added into inhibitor control wells using a JANUS G3 robot (PerkinElmer). Subsequently, 25 uL of mHBSS was dispensed into all wells of the 384 well plate using a Multidrop Combi. All samples were then mixed using the JANUS G3 robot and 15 µl dispensed on top of the cell monolayer to reach a final concentration of 10.05 µM.
# The FMP dye was solved freshly with mHBSS, 20 µl of which was deposited into each well using the Multidrop Combi, and the cells were incubated at room temperatur for 30 min. Each plate was then placed in an EnVision microplate reader (PerkinElmer) and a single baseline measurement was taken for each well (bottom reads excitation at 531, emission at 579 nm). The plate was then transferred to the Multidrop Combi and 10 µl/well of 5 mM glutamine was dispensed into each well. After linearly shaking for 5 s, microplates were returned to the EnVision microplate reader for a single post-injection measurement per well. The change of fluorescence was measured after 60 s.
# Z′ scores were calculated from the controls onboard each of the 384-well plates assayed in the primary and secondary screen as described by Zhang et al., ([Zhang et al., 1999]). For the control inhibitor γ-glutamyl-hydroxamate (GHX) a Z’ score of 0.717 was determined, which was a sufficient signal for a HTS.
# [2] = system: SNAT1 and SNAT2; experiment: FMP assay in HCC1806 clones C10 (ASCT2ko) and D126 (ASCT2ko, SNAT2ko); format: cell-based, human
# Method: To delete the SNAT2 (SLC38A2) gene in modified HCC1806 cells (clone C10 nullizygous for ASCT2 ([Broer et al., 2019])), the GeneArt CRISPR Nuclease Vector with OFP Reporter Kit (Invitrogen; A21174) was employed and complementary 19–20 bp long single-stranded oligonucleotides with overhangs were designed to produce a guide RNA (gRNA) for the Cas9 nuclease that would target exon 7 of the SNAT2 gene. Colonies were analysed by sequencing using the U6 primer included in the GeneArt CRISPR Nuclease Vector with OFP Reporter kit. Plasmids that contained the correct CRISPR nuclease construct were then used to transfect HCC1806 cells with Lipofectamine 2000 (Invitrogen). Prior to transfection, medium was replaced with 2 ml of fresh DMEM/F-12 (supplemented with 10% heat-inactivated FBS and 2 mM glutamine). Plasmid DNA (4 µg) and 10 µL of Lipofectamine 2000 were incubated separately for 5 min at room temperature in 500 µl of Opti-MEM (Invitrogen) before being combined and incubated for a further 30 min at room temperature. The DNA-Lipofectamine complex was then added to the cells in a dropwise manner and allowed to be absorbed over 6 h at 37°C, after which the medium was renewed with fresh DMEM/F-12. Cells were checked for red fluorescence using an EVOS FL cell imaging system (Thermo Fisher Scientific) 48–72 h post transfection. Subsequently, cells were detached using 0.25% Trypsin EDTA. After harvesting and washing thrice with PBS (pH 7.4), cells were resuspended in PBS (pH 7.4) supplemented with 5 mM glucose and 1% dialysed and heat inactivated FBS and passed through a 100 μm cell strainer. The cell filtrate was then pelleted once more and resuspended in the same buffer. Cells were sorted using an ARIA II FACS machine and individually dispensed into the wells of a 96-well plate. Nullizygous clones were identified using a series of assays including the FLIPR membrane potential assay, western blotting and sequencing.
# The FLIPR Membrane Potential Blue Explorer Kit (Molecular Devices) was used to characterise inhibitors and to optimise a high-throughput compound screen. Cells were seeded at approximately 60,000 cells/well on a 96-well plate and allowed to attach and grow overnight in a cell incubator. The next day, the cells were washed once with mHBSS and incubated in a starvation medium (composed of mHBSS with 1% dialysed heat-inactivated FBS, 23 mM NaHCO3, 10 U/ml penicillin and 10 μg/ml streptomycin) for 24 h. Cells were then washed once with mHBSS and incubated with 50 µl of the mHBSS-resuspended FMP assay dye and 50 µl of mHBSS (with or without inhibitors) and incubated at room temperature for 30 min. The plate was then placed in an EnSpire Multimode plate reader (PerkinElmer) and four sequential measurements of fluorescence were recorded as a baseline reference. Immediately after the baseline measurements were taken, 25 µl of 5 mM glutamine dissolved in mHBSS was injected into each well and the plate was shaken orbitally for 5 s before a series of consecutive fluorescence measurements were taken. The excitation wavelength was set to 530 nm and the emission was detected at 565 nm. The Δ fluorescent signal reported in the figures was taken 30 s after substrate addition. After the assay was complete, the liquid content of the plate was carefully removed, and the cell monolayer inspected to ensure it remained intact throughout the course of the assay.
smiles,measurement,setting,value
"Cc1ccc(S(=O)(=O)N(C)c2ccsc2C(=O)NCc2ccccc2C(F)(F)F)cc1 [Compound 57_E, 3-(N-methyl (4-methylphenyl)sulfonamido)-N-(2-trifluoromethylbenzyl)thiophene-2-carboxamide]",% (delta) Fluorescence Signal,"[1]; Figure 3A, ranked hits of the high-throughput screen, FMP assay",58.6322%
"NC(=O)CC[C@H](N)C(=O)O [Glutamine, glutamine]","FMP signal in D126 cells (ASCT2ko, SNAT2ko) compared to C10","[2]; MeAIB 10 mM, glutamine 1 mM",42%
"N[C@@H](CCC(=O)NO)C(=O)O [GHX, L-glutamic acid γ-monohydroxamate]",reduction of FMP signal,"[1]; 6 mM, 1 mM glutamine",92%
same,block of glutamine (1 mM) FMP signal,[2]; C10 cells,fully blocked
same,FMP fluorescence,"[2]; C10 cells, time 0, replicates 1-10",22566 and 24924 and 25754 and 31415 and 31062 and 25958 and 24037 and 24199 and 31861 and 22458
same,FMP fluorescence,"[2]; C10 cells, time 30, replicates 1-10",22979 and 25257 and 24877 and 31065 and 30653 and 25037 and 22964 and 23247 and 31019 and 21524
same,FMP fluorescence,"[2]; C10 cells, time 40, replicates 1-10",22836 and 25183 and 25086 and 31077 and 30677 and 25349 and 23314 and 23279 and 31141 and 21715
same,FMP fluorescence,"[2]; C10 cells, time 50, replicates 1-10",22729 and 25095 and 24771 and 30889 and 30642 and 25022 and 23105 and 23276 and 31320 and 21555
same,FMP fluorescence,"[2]; C10 cells, time 60, replicates 1-10",22771 and 25085 and 24871 and 30919 and 30705 and 25319 and 23018 and 23144 and 31224 and 21790
same,FMP fluorescence,"[2]; C10 cells, time 70, replicates 1-10",22546 and 24933 and 24936 and 30890 and 30628 and 25268 and 22856 and 23122 and 31403 and 21489
same,FMP fluorescence,"[2]; C10 cells, time 80, replicates 1-10",22447 and 25159 and 24725 and 30733 and 30614 and 25267 and 22687 and 23011 and 31397 and 21490
same,FMP fluorescence,"[2]; C10 cells, time 90, replicates 1-10",22259 and 25131 and 24741 and 30924 and 30357 and 25175 and 22779 and 23104 and 30871 and 21284
same,FMP fluorescence,"[2]; C10 cells, time -10, replicates 1-10",23300 and 25374 and 26077 and 32072 and 31514 and 26200 and 24526 and 24442 and 32334 and 22554
same,FMP fluorescence,"[2]; C10 cells, time -20, replicates 1-10",23913 and 26637 and 26782 and 32769 and 33018 and 26873 and 25394 and 25312 and 33318 and 23095
